# Where two headings read alike, the source gives them in different places.
# Assays:
# [1] = in vivo
# Text: In this context the compound is better than mestranol by a factor of 6.
# ovariectomized mice = experiment: Allen-Doisy test in ovariectomized mice (estrogenic properties); type: in vivo, mouse
# Text: (§1) STS 593 was weaker than ethynylestradiol by a factor of 9 in its estrogenic properties as shown by the Allen-Doisy test in ovariectomized mice. The compound was only 7% as active as the standard mestranol in producing a uterine response in infantile rats (Table 3), whereas the antiestrogenic properties exceeded those of clomiphene citrate by a factor of 1.4.
# [2] = test system: infantile female Wistar rats; experiment: Uterine activity in infantile female Wistar rats; type: in vivo, Wistar rat; settings: for Uterine weight (-x): n=10
# Text: as §1
# Comparison of uterine activity in infantile female
# Wistar rats produced by STS 593 and mestranol
# infantile male rats = experiment: Androgenic, anabolic and antiandrogenic effects in infantile male rats; type: in vivo, rat; settings: orally over 6 days, total doses 0.75-3.0 mg/animal
# Text: (§2) The HE of 97.3% is significant (Table 5).
# [3] = test system: mice (uterine fresh weight); experiment: Uterine activity in mice (dose for doubling uterine fresh weight); type: in vivo, mouse; settings: p.o.
# Text: (§3) Uterine and contraceptive activities produced by selected
# (§4) 14,15-methylene-17-ol-estratrienes in mice
# inseminated rats = experiment: Antinidation / Nidation Inhibition Test in inseminated rats treated on the 1st day of gestation; type: in vivo, rat; settings: for ED50 / ED5 / ED95: Rattus norvegicus, po
# Text: The favorable biological properties of the named compounds of the process according to the invention are to be further illustrated and described in the example of 3-methoxy-14β-15β-methylene-estra-1,3,5(10)-triene-17β-ol (test designation STS 593).
# (§5) Gestation and nidation inhibition expressed in % were used as parameters for antifertility effects. GHE1 (gestation inhibitory effect) and IHE1 (nidation inhibitory effect) were related to the inhibition of the total of gestations or nidations, GHE2 and IHE2 were related to the inhibition of normal gestations or nidations within each group. […] GHE1, GHE2, IHE1 and IHE2 were calculated using the following formulae: [formula] n=number of females inseminated in each group v=test group
# k=control group (sesame oil)
# x=number of all gestations (GHE1) and of normal gestations (GHE2) p. group, respectively
# (§6) f=average number (x) of all implantations (IHE1) and of normal implantations (IHE2) p. female inseminated within a group, respectively.
# The comparison of the relative incidence of gestations was performed by the Ryan test, the comparison of the number of implantations by the Dunn test.
# (§7) For GHE1 and GHE2 the ED (effective doses) for the HE (inhibitory effect) 0%, 50%, and 95% as far as possible were determined by means of the probit analysis. The ED50 for IHE1 and IHE2 were determined graphically.
# infantile rabbit uteri = experiment: McPhail test, progestagenic and antiprogestagenic activities in infantile rabbit uteri; type: in vivo
# Text: as §2
# Progestagenic and antiprogestagenic activities of STS 593
# in infantile rabbit uteri as shown by the McPhail test
# [4] = General statement on antifertility effects and separation from uterine, estrogenic and antigonadotrophic activities; type: in vivo; settings: compared to mestranol
# [5] = Antiestrogenic properties; settings: in vivo
# Text: as §1
# mice = experiment: Contraceptive activity in mice, single application on 1st day of gestation; type: in vivo, mouse; settings: mice, 10 mg/kg p.o., single application
# Description: as §5, §6, §7, §3, §4
# [6] = 1st trial 1975, 0.1 mg/kg p.o., n=12
# [7] = 1st trial 1975, 0.3 mg/kg p.o., n=12
# [8] = 1st trial 1975, 0.9 mg/kg p.o., n=12
# [9] = 2nd trial 1978, 0.08 mg/kg p.o., n=10
# [10] = 2nd trial 1978, 0.16 mg/kg p.o., n=10
# [11] = 2nd trial 1978, 0.32 mg/kg p.o., n=10
# [12] = 2nd trial 1978, 0.64 mg/kg p.o., n=10
# [13] = 2nd trial 1978, 1.28 mg/kg p.o., n=10
# [14] = 10 mg/kg p.o. + progesterone 4 mg/animal s.c., over 4 days, n=5
smiles,measurement,setting,value
"COc1ccc2c(c1)CC[C@@H]1[C@@H]2CC[C@]2(C)[C@@H](O)C[C@H]3C[C@@]312 [STS 593, 3-methoxy-14β,15β-methylene-estra-1,3,5(10)-triene-17β-ol]",Separation of contraceptive activity and undesirable post implantation fetal damage (in words),[1],favorable separation
same,Separation of contraceptive activity and undesirable post implantation fetal damage: factor better than mestranol,[1],6 factor
same,Estrogenic properties: factor weaker than ethynylestradiol,ovariectomized mice,9 factor
same,"Uterine response, activity relative to mestranol",[2]; infantile rats,7%
same,Uterine weight (-x),[2]; total dose 0.1 per animal over 3 days p.o.,27.63 mg
same,Uterine weight (-x),[2]; total dose 1.0 per animal over 3 days p.o.,52.40 mg
same,Uterine weight (-x),[2]; total dose 10.0 per animal over 3 days p.o.,75.90 mg
same,Anabolic effects,infantile male rats,did not show any
same,Androgenic effects,infantile male rats,did not show any
same,Antiandrogenic effects,infantile male rats,did not show any
same,Total dose for doubling uterine fresh weight,[3],0.45 μg/animal
same,"Female rats pregnant of n, normal",inseminated rats; [6],10
same,"Female rats pregnant of n, total",inseminated rats; [6],10
same,GHE1,inseminated rats; [6],16.7%
same,GHE2,inseminated rats; [6],16.7%
same,IHE1,inseminated rats; [6],30.0%
same,IHE2,inseminated rats; [6],34.7%
same,"Implantations per female (-x), normal",inseminated rats; [6],8.2
same,"Implantations per female (-x), total",inseminated rats; [6],8.8
same,"Female rats pregnant of n, normal",inseminated rats; [7],5
same,"Female rats pregnant of n, total",inseminated rats; [7],8
same,GHE1,inseminated rats; [7],33.3%
same,GHE2,inseminated rats; [7],58.3%
same,IHE1,inseminated rats; [7],70.0%
same,IHE2,inseminated rats; [7],72.7%
same,"Implantations per female (-x), normal",inseminated rats; [7],3.4
same,"Implantations per female (-x), total",inseminated rats; [7],3.8
same,"Female rats pregnant of n, normal",inseminated rats; [8],3
same,"Female rats pregnant of n, total",inseminated rats; [8],6
same,GHE1,inseminated rats; [8],50.0%
same,GHE2,inseminated rats; [8],75.0%
same,IHE1,inseminated rats; [8],86.7%
same,IHE2,inseminated rats; [8],94.7%
same,"Implantations per female (-x), normal",inseminated rats; [8],0.7
same,"Implantations per female (-x), total",inseminated rats; [8],1.7
same,"Female rats pregnant of n, normal",inseminated rats; [9],9
same,"Female rats pregnant of n, total",inseminated rats; [9],9
same,GHE1,inseminated rats; [9],10%
same,GHE2,inseminated rats; [9],10%
same,IHE1,inseminated rats; [9],18.5%
same,IHE2,inseminated rats; [9],19.2%
same,"Implantations per female (-x), normal",inseminated rats; [9],10.5
same,"Implantations per female (-x), total",inseminated rats; [9],10.6
same,"Female rats pregnant of n, normal",inseminated rats; [10],2
same,"Female rats pregnant of n, total",inseminated rats; [10],10
same,GHE1,inseminated rats; [10],0%
same,GHE2,inseminated rats; [10],80%
same,IHE1,inseminated rats; [10],32.3%
same,IHE2,inseminated rats; [10],82.3%
same,"Implantations per female (-x), normal",inseminated rats; [10],2.3
same,"Implantations per female (-x), total",inseminated rats; [10],8.8
same,"Female rats pregnant of n, normal",inseminated rats; [11],3
same,"Female rats pregnant of n, total",inseminated rats; [11],5
same,GHE1,inseminated rats; [11],50%
same,GHE2,inseminated rats; [11],70%
same,IHE1,inseminated rats; [11],74.6%
same,IHE2,inseminated rats; [11],86.1%
same,"Implantations per female (-x), normal",inseminated rats; [11],1.8
same,"Implantations per female (-x), total",inseminated rats; [11],3.3
same,"Female rats pregnant of n, normal",inseminated rats; [12],0
same,"Female rats pregnant of n, total",inseminated rats; [12],4
same,GHE1,inseminated rats; [12],60%
same,GHE2,inseminated rats; [12],100%
same,IHE1,inseminated rats; [12],87.7%
same,IHE2,inseminated rats; [12],100%
same,"Implantations per female (-x), normal",inseminated rats; [12],0
same,"Implantations per female (-x), total",inseminated rats; [12],1.6
same,"Female rats pregnant of n, normal",inseminated rats; [13],0
same,"Female rats pregnant of n, total",inseminated rats; [13],2
same,GHE1,inseminated rats; [13],80%
same,GHE2,inseminated rats; [13],100%
same,IHE1,inseminated rats; [13],88.5%
same,IHE2,inseminated rats; [13],100%
same,"Implantations per female (-x), normal",inseminated rats; [13],0
same,"Implantations per female (-x), total",inseminated rats; [13],1.5
same,ED50,"inseminated rats; according to trial No. 1, read-out: ED50 for IHE1",0.175 mg/kg
same,ED50,"inseminated rats; according to trial No. 1, read-out: ED50 for IHE2",0.155 mg/kg
same,ED50,"inseminated rats; determined graphically, STS 593 from trial No. 2, read-out: ED 50 for IHE1",0.22 mg/kg
same,ED50,"inseminated rats; determined graphically, STS 593 from trial No. 2, read-out: ED 50 for IHE2",0.112 mg/kg
same,ED5,"inseminated rats; probit analysis, STS 593 from trial No. 2, read-out: ED 05 for GHE1",0.078 mg/kg
same,ED5,"inseminated rats; probit analysis, STS 593 from trial No. 2, read-out: ED 05 for GHE2",0.044 mg/kg
same,ED50,"inseminated rats; probit analysis, STS 593 from trial No. 2, read-out: ED 50 for GHE1",0.474 mg/kg
same,ED50,"inseminated rats; probit analysis, STS 593 from trial No. 2, read-out: ED 50 for GHE2",0.147 mg/kg
same,ED95,"inseminated rats; probit analysis, STS 593 from trial No. 2, read-out: ED 95 for GHE1",2.59 mg/kg
same,ED95,"inseminated rats; probit analysis, STS 593 from trial No. 2, read-out: ED 95 for GHE2",0.454 mg/kg
same,"Contraceptive activity related to IHE1, compared to ethynylestradiol",inseminated rats; female rat,nearly double the activity of ethynylestradiol
same,"Contraceptive activity related to IHE1, compared to mestranol",inseminated rats; female rat,in the range of that of mestranol
same,McPhail index (-x),"infantile rabbit uteri; 2 mg/kg p.o. + progesterone 4 mg/animal s.c., over 4 days, n=6",3.8
same,McPhail index (-x),"infantile rabbit uteri; 2 mg/kg p.o. alone, total dose over 4 days, n=5",0
same,HE %,infantile rabbit uteri; [14],26.7%
same,McPhail index (-x),infantile rabbit uteri; [14],2.2
same,McPhail index (-x),"infantile rabbit uteri; 50 mg/kg p.o. + progesterone 4 mg/animal s.c., over 4 days, n=6",0.08
same,HE %,"infantile rabbit uteri; 50 mg/kg p.o. + progesterone 4 mg/animal s.c., over 4 days, significant",97.3%
same,Antiprogestagenic effects (in words),"infantile rabbit uteri; rabbit, in vivo",produces antiestrogenic and antiprogestagenic effects
same,Progestagenic activity,"infantile rabbit uteri; rabbit, in vivo",lacking in progestagenic activity
same,Antiprogestagenic properties,"infantile rabbit uteri; rabbits, oral, 50 mg/kg",showed antiprogestanenic properties
same,"Separation of contraceptive properties and undesirable (estrogenic, antigonadotrophic, progestagenic) side-effects vs mestranol",[4],more favorable separation
same,Antiestrogenic properties: factor exceeding clomiphene citrate,[5],1.4 factor
same,Antiestrogenic properties (in words),"[5]; listed as 3-methoxy-14β,15β-methylene-estra-1,3,5(10)-triene-17β-ol",marked antiestrogenic properties
same,Antiestrogenic properties (in words),"[5]; listed as 3-methoxy-14β-15β-methylene-estra-1,3,5(10)-triene-17β-ol",produces antiestrogenic and antiprogestagenic effects
same,"THE, % after single application of 10 mg/kg of body-wt. on the 1st day of gestation p.o.",mice,80.2%

# Source: US4231946A, “14,15-Methylene derivatives of the estrane series and methods for preparing same” (VEB Jenapharm, priority 1978, dated 1980)
